Assay results reported in PMC6591397, “Functional Roles of Metabolic Intermediates in Regulating the Human Mitochondrial NAD(P)^+-Dependent Malic Enzyme” (Scientific Reports, 2019).
Where two headings read alike, the source gives them in different places.

Experiments:
lung tumor = tested on: lung tumor; parameters: method as in PMID 24957098; settings: in vivo; cited from earlier work
[1] = tested on: human non-small cell lung carcinoma H1299 cancer cells; parameters: method as in PMID 26008970; settings: cited from earlier work
m-NAD(P)-ME [2] = target: T1, m-NAD(P)-ME (Homo sapiens, UniProt P23368); test: Size distribution analysis by analytical ultracentrifugation: monomer-dimer-tetramer equilibrium with different ligands; format: binding; settings: NAD+-bound enzyme vs apoenzyme
T1 construct: made in house; host or cells: E. coli BL21 (pRH281 vector, trp promoter)
T1 sequence (P23368 19-584): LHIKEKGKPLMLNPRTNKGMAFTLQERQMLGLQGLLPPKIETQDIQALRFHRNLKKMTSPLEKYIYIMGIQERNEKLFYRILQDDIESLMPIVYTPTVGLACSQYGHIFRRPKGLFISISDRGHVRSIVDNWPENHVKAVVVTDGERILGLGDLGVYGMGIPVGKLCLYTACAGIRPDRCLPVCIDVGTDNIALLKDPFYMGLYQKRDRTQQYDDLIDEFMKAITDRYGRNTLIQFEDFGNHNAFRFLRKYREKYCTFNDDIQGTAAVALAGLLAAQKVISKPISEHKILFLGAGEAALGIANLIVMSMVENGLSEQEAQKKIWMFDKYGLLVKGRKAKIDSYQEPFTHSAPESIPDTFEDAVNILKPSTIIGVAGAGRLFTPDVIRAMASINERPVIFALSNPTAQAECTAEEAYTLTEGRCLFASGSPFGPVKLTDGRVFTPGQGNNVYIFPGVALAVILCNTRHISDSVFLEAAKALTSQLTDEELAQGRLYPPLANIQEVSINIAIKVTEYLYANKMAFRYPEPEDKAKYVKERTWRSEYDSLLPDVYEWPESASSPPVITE
Experimental: All sedimentation velocity data were globally fitted by a monomer-dimer-tetramer equilibrium model by the software program of SEDPHAT[34]. The parameters protein partial specific volume, solvent density and viscosity were calculated with the [sequence] software program[35].

m-NAD(P)-ME [3] = target: T1, m-NAD(P)-ME; test: Quaternary structure analysis by native gel electrophoresis; format: binding; settings: 8 μg enzyme; 0.4 or 2 mM NAD+, 0.5 or 2 mM ATP
Experimental: The native gel was running under 110 Voltage with a running buffer (25 mM Tris-HCl and 192 mM glycine, pH8.3) at 4 °C. After electrophoresis, protein was detected by staining with the Coomassie brilliant blue R-250.
Figure S1. Quaternary structure of m-NAD(P)-ME determined by the native gel electrophoresis. The dimer-tetramer distribution of m-NAD(P)-ME was presented on the 3-12% Bis-Tris Native PAGE (NativePAGE^TM Novex®, Life Technologies).

[4] = target: human m-NAD(P)-ME WT and the exosite mutants; test: Size distribution analysis by analytical ultracentrifugation of WT and exosite mutants, protein only, with NAD+ or with ATP; format: binding; settings: PBS
Experimental: Size distribution of the monomer-dimer-tetramer equilibrium of the enzyme was monitored using a Beckman Optima XL-A analytical ultracentrifuge instrument. A protein sample (380 µl) and reference buffer (400 µl) were loaded into a well-assembled cell with a double-sector centerpiece. Experiments were performed with an An-50Ti rotor at 42,000 rpm and 20 °C for 3 to 4 hours. The scans for sedimentation velocity data were monitored by the UV absorbance at 280 nm with a 480 s interval time and a 0.002 cm step size in continuous distribution mode. Using the SEDFIT 9.4c software[31]–[34], the size distribution of the enzyme was analyzed with a resolution corresponding to N = 200 to cover the range of sedimentation coefficient (S) values from approximately 0.1 to 20, a confidence level of p = 0.95, and a best-fit average anhydrous frictional ratio (f/f0). The dissociation constants of monomer-dimer-tetramer self-association model were globally analyzed by using the SEDPHAT software.
All sedimentation velocity data were globally fitted by a monomer-dimer-tetramer equilibrium model by the software program of SEDPHAT[34]. The parameters protein partial specific volume, solvent density and viscosity were calculated with the […] software program.
Figure 4 Continuous sedimentation coefficient distribution of human m-NAD(P)-ME WT and the exosite mutants. The enzyme concentrations were fixed at 1.6, 4.7, and 14.2 μM in PBS. […] (a) ME2_WT; (b) ME2_H154V; (c) ME2_K156A; (d) ME2_G192A; (e) ME2_R194N; (f) ME2_R197E; (g) ME2_R197D.
Figure 5 Continuous sedimentation coefficient distribution of human m-NAD(P)-ME WT and the exosite mutants. The enzyme concentrations were fixed at 1.6, 4.7, and 14.2 μM in PBS. […] (a) ME2_N482G; (b) ME2_N482A; (c) ME2_R542V; (d) ME2_Y552F; (e) ME2_R556Q; (f) ME2_R556V.

[5] = tested on: human m-NAD(P)-ME WT and exosite mutants; test: Enzyme kinetic assay (NADH production, absorbance at 340 nm) of WT and exosite mutants; format: biochemical; settings: for K0.5,malate / Km / kcat: pH 7.4
Experimental: The ME reaction was measured with the production rate of NADH or NADPH via the absorbance at 340 nm. The reaction mixture in a saturated condition included 1 mM NAD(P)^+, 40 mM malate, and 10 mM MgCl2 in 50 mM Tris-HCl (pH 7.4). To determine the Km and kcat values, the concentration of one substrate was varied around its Km values while the concentrations of the other components were fixed at saturated concentrations.
The cooperativity of malate was determined with the following equation: ν=Vmax×[Malate]^h/K0.5h+[Malate]^h where ν is the initial velocity, Vmax is the maximum rate of the reaction, K0.5 is the substrate concentration at half-maximal velocity, and h is the Hill coefficient, which represents the degree of cooperativity.

[6] = protein only, read-out: Kd,12 monomer-dimer dissociation constant
[7] = protein only, read-out: Kd,24 dimer-tetramer dissociation constant
[8] = read-out: Kd,12(ATP), with 0.5 mM ATP
[9] = read-out: Kd,24(ATP), with 0.5 mM ATP
[10] = with 0.4 mM NAD+, read-out: Kd,12(NAD)
[11] = with 0.4 mM NAD+, read-out: Kd,24(NAD)

Kd [4, 6] [nM]	Kd [4, 7] [nM]	Kd [4, 8] [nM]	Kd [4, 9] [nM]	Kd [4, 10] [nM]	Kd [4, 11] [nM]	h (Hill coefficient, malate cooperativity) ([5]; (+) with 5 mM fumarate)	h (Hill coefficient, malate cooperativity) ([5]; (−) without fumarate)	Compound	K0.5,malate ([5]; (+) with 5 mM fumarate) [mM]	Km ([5]; (+) with 5 mM fumarate) [µM]	kcat ([5]; (+) with 5 mM fumarate) [s⁻¹]	K0.5,malate ([5]; (−) without fumarate) [mM]	Km ([5]; (−) without fumarate) [µM]	kcat ([5]; (−) without fumarate) [s⁻¹]	also measured
30 ± 2	460 ± 3	460 ± 10	4030 ± 40	70 ± 1	160 ± 1	1.08 ± 0.05	1.99 ± 0.10	H154V: exosite mutant of human m-NAD(P)-ME	4.94 ± 0.26	530 ± 40	140.5 ± 2.5	15.31 ± 0.51	970 ± 60	134.6 ± 2.9	kcat compared with the WT value [5]: reduced to half of the WT value
120 ± 4	320 ± 10	320 ± 10	800 ± 20	1360 ± 50	80 ± 3	1.01 ± 0.10	1.65 ± 0.04	K156A: exosite mutant of human m-NAD(P)-ME	3.56 ± 0.40	320 ± 30	223.6 ± 5.1	10.12 ± 0.21	650 ± 70	209.9 ± 6.2	
290 ± 10	950 ± 30	1440 ± 40	350 ± 10	580 ± 30	970 ± 50	1.04 ± 0.14	1.87 ± 0.70	N482A: exosite mutant of human m-NAD(P)-ME	1.02 ± 0.08	20 ± 10	215.6 ± 0.1	17.43 ± 5.10	700 ± 170	169.1 ± 0.6	
800 ± 20	260 ± 10	690 ± 20	110 ± 3	60 ± 3	810 ± 40	1.06 ± 0.05	1.76 ± 0.23	R197D: exosite mutant of human m-NAD(P)-ME	4.98 ± 0.28	130 ± 20	216.0 ± 0.1	17.82 ± 2.01	460 ± 50	206.8 ± 0.1	
10 ± 1	440 ± 10	20 ± 1	9870 ± 380	1870 ± 80	210 ± 10	1.06 ± 0.11	1.43 ± 0.09	R542V: exosite mutant of human m-NAD(P)-ME	5.89 ± 0.78	910 ± 180	239.3 ± 12.6	27.00 ± 3.44	2180 ± 270	175.6 ± 14.0	

Continued, compound first:

Compound	Kd [4, 6] [nM]	Kd [4, 7] [nM]	Kd [4, 8] [nM]	Kd [4, 9] [nM]	Kd [4, 10] [nM]	Kd [4, 11] [nM]	h (Hill coefficient, malate cooperativity) ([5]; (+) with 5 mM fumarate)	h (Hill coefficient, malate cooperativity) ([5]; (−) without fumarate)	K0.5,malate ([5]; (+) with 5 mM fumarate) [mM]	Km ([5]; (+) with 5 mM fumarate) [µM]	kcat ([5]; (+) with 5 mM fumarate) [s⁻¹]	K0.5,malate ([5]; (−) without fumarate) [mM]	Km ([5]; (−) without fumarate) [µM]	kcat ([5]; (−) without fumarate) [s⁻¹]	also measured
COC(=O)CC(O)C(=O)OC (stereo not shown) [DMM, dimethyl-malate]															effect on lung tumor growth (lung tumor): suppress lung tumor growth in vivo
O=C(O)c1cc2ccccc2c(Cc2c(O)c(C(=O)O)cc3ccccc23)c1O [EA, Embonic acid]															effect on cell growth [1]: suppresses the cell growth; effect on cellular senescence [1]: induces the cellular senescence
NC(=O)c1ccc[n+]([C@@H]2O[C@H](COP(=O)([O-])OP(=O)(O)OC[C@H]3O[C@@H](n4cnc5c(N)ncnc54)[C@H](O)[C@@H]3O)[C@@H](O)[C@H]2O)c1 [NAD, NAD^+]															Kd,24 lower than that of the apoenzyme (m-NAD(P)-ME [2]): 6 fold; dimer-tetramer distribution of the enzyme on native gel (m-NAD(P)-ME [3]): most tetrameric forms
G192A: exosite mutant of human m-NAD(P)-ME	90 ± 2	300 ± 1	210 ± 10	400 ± 10	60 ± 2	180 ± 10	1.19 ± 0.10	1.30 ± 0.19	2.65 ± 0.18	320 ± 30	230.0 ± 4.4	11.18 ± 2.08	570 ± 70	210.6 ± 7.7	
N482G: exosite mutant of human m-NAD(P)-ME	50 ± 10	180 ± 2	100 ± 3	60 ± 2	380 ± 2	40 ± 10	1.00 ± 0.09	1.59 ± 0.14	4.23 ± 0.47	610 ± 40	309.7 ± 11.5	23.81 ± 2.70	1500 ± 140	263.2 ± 19.7	
R194N: exosite mutant of human m-NAD(P)-ME	310 ± 10	230 ± 10	80 ± 1	1440 ± 30	170 ± 10	40 ± 1	1.08 ± 0.08	2.18 ± 0.15	5.11 ± 0.50	760 ± 70	227.4 ± 6.1	19.53 ± 0.91	1600 ± 160	204.4 ± 8.3	
R197E: exosite mutant of human m-NAD(P)-ME	30 ± 1	2330 ± 80	100 ± 3	590 ± 20	100 ± 3	1110 ± 40	1.24 ± 0.10	1.65 ± 0.30	4.55 ± 0.37	1110 ± 90	187.6 ± 5.2	23.37 ± 4.48	2370 ± 280	165.2 ± 20.4	
R556Q: exosite mutant of human m-NAD(P)-ME	10 ± 3	1750 ± 60	400 ± 10	180 ± 10	180 ± 10	910 ± 30	1.20 ± 0.07	1.71 ± 0.27	4.75 ± 0.31	690 ± 60	251.8 ± 5.6	19.01 ± 2.40	1160 ± 220	220.5 ± 16.2	
R556V: exosite mutant of human m-NAD(P)-ME	130 ± 1	2300 ± 20	2030 ± 60	180 ± 10	600 ± 10	4070 ± 80	1.24 ± 0.30	2.35 ± 0.47	1.87 ± 0.26	360 ± 20	204.9 ± 9.5	15.90 ± 1.51	1080 ± 60	195.2 ± 12.8	
WT: wild-type human mitochondrial NAD(P)+-dependent malic enzyme (ME2), recombinant from E. coli	240 ± 2	350 ± 3	640 ± 10	2720 ± 60	660 ± 10	50 ± 1	1.10 ± 0.09	2.41 ± 0.32	2.98 ± 0.21	390 ± 50	261.7 ± 6.0	10.67 ± 0.64	540 ± 60	252.0 ± 8.2	h (Hill coefficient, malate cooperativity) ([5]; (−) without fumarate, listed as Human m-NAD(P)-ME): approximately 2
